Assay results: patent US6699719B2, “Biosensor arrays and methods” (Proteomic Systems, Inc., priority 1996, dated 2004)

Tests used:
[1] = target: CXCR4 (CXC chemokine Receptor 4) (Homo sapiens, UniProt P61073); test: MembraneChip specificity of fluorescent ligand binding against another GPCR; settings: CXCR4 chip probed with 15 μM BODIPY 558/568 Pirenzepine
[2] = MembraneChip lipid only control corral probed with fluorescent ligand; assay type: binding; settings: for difference in BODIPY TMR CGP12177 fluorescence when competitor added: lipid only (negative) corral, 5 mM propranolol or 15 mM scopolamine
CXCR1 = target: T1, CXCR1 (Homo sapiens, UniProt P25024); test: Multiplexed MembraneChip GPCR assay; assay type: binding; settings: CXCR1 corral; 5 mM propranolol or 15 mM scopolamine
T1 construct: purchased Stratagene (La Jolla, Calif.)
T1 sequence (P25024 1-350): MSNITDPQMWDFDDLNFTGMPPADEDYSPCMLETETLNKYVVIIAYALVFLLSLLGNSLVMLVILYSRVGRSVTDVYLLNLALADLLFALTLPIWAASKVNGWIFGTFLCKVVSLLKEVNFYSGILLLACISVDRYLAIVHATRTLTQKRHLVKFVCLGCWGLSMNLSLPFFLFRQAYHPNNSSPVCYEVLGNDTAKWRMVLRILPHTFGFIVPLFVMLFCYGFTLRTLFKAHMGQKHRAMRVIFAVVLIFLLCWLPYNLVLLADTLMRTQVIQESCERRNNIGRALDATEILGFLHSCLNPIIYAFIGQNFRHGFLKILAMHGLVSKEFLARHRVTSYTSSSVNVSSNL

CXCR3 = target: T2, CXCR3 (Homo sapiens, UniProt P49682); test: Multiplexed MembraneChip GPCR assay; assay type: binding; settings: CXCR3 corral; 5 mM propranolol or 15 mM scopolamine
T2 construct: purchased Stratagene (La Jolla, Calif.)
T2 sequence (P49682 1-368): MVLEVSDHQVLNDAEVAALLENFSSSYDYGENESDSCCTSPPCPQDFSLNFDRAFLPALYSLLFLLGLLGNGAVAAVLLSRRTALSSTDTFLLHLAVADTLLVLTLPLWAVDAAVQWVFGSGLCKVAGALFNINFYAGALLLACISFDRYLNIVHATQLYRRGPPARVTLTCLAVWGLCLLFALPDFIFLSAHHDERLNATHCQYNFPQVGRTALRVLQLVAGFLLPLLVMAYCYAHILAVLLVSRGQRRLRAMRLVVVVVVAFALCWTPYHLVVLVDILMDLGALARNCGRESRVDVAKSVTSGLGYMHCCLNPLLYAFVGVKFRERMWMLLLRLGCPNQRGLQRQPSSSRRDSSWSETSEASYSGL

AR-β1 = target: T3, AR-β1 (Homo sapiens, UniProt P08588); test: Multiplexed MembraneChip GPCR assay; assay type: binding; settings: 15 mM scopolamine
T3 construct: purchased Packard BioScience (Meriden, CT) 6110106
T3 sequence (P08588 whole entry): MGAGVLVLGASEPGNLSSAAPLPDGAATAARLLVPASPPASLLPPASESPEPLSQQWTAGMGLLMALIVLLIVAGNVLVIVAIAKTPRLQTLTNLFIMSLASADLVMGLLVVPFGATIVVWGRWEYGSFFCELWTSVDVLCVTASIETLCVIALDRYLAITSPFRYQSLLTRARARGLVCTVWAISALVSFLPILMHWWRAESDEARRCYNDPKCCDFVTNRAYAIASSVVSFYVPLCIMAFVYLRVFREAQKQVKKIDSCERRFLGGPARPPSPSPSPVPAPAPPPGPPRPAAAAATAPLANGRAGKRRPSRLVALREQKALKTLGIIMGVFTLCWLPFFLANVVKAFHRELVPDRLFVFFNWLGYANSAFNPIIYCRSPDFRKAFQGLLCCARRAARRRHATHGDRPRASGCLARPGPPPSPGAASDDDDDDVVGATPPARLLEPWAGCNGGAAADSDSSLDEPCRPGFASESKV

CXCR4 = CXCR4 (Homo sapiens, UniProt P61073); test: Multiplexed MembraneChip GPCR assay; assay type: binding; settings: CXCR4 corral; 5 mM propranolol or 15 mM scopolamine
CXCR4, sequence (P61073 whole entry, species assumed): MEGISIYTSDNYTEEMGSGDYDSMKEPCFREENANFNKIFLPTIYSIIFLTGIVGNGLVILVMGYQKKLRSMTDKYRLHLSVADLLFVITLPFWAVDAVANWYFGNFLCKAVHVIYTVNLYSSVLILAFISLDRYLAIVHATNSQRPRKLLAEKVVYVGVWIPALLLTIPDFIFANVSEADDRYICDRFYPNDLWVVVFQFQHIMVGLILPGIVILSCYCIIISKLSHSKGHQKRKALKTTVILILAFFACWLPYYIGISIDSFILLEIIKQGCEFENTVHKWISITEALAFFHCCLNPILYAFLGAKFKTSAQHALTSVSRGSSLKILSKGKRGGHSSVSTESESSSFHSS

CXCR4 (CXC chemokine Receptor 4), sequence (P61073 whole entry, species assumed): as above

| SMILES | Relative Fluorescence Units (RFU) ± standard deviation, CXCR4 [1] | Relative Fluorescence Units (RFU) ± standard deviation, Negative ([2]; lipid only corral probed with 15 μM BODIPY 558/568 Pirenzepine) | difference in BODIPY TMR CGP12177 fluorescence when competitor added [2] | difference in BODIPY TMR CGP12177 fluorescence when competitor added (CXCR1) | difference in BODIPY TMR CGP12177 fluorescence when competitor added (CXCR3) | change in fluorescence of BODIPY TMR CGP12177 at AR-β1 (AR-β1) | difference in BODIPY TMR CGP12177 fluorescence when competitor added (CXCR4) |
| --- | --- | --- | --- | --- | --- | --- | --- |
| O=C(CCc1ccc(/C=C2\C=CC(c3cccs3)=N2)n1B(F)F)NCCCCCCN1CCN(CC(=O)N2c3ccccc3C(=O)Nc3cccnc32)CC1 [BODIPY 558/568 Pirenzepine] | 8,788 ± 3,137 RFU | 2,637 ± 1,846 RFU |  |  |  |  |  |
| CC(C)NCC(O)COc1cccc2ccccc12 (stereo not shown) [propranolol] |  |  | only negligible differences | only negligible differences | only negligible differences |  |  |
| CN1[C@@H]2C[C@@H](OC(=O)[C@H](CO)c3ccccc3)C[C@H]1[C@@H]1O[C@@H]12 [scopolamine] |  |  | only negligible differences | only negligible differences | only negligible differences | Little decrease in fluorescence | only negligible differences |
